In ChEMBL document CHEMBL4840337, “A Potent Fluorescent Reversible-Covalent Inhibitor of Cardiac Muscle Contraction” (ACS Med Chem Lett, 2021):
The source made the active and inactive calls. The rule behind the calls is not given here.

Columns and labels:
Bos taurus [1] = species on record: Bos taurus; assay: Inhibition of actomyosin ATPase activity in bovine cardiac myofibrils assessed as reduction in inorganic phosphate release using ATP as substrate preincubated for 30 mins in presence of pCa 9 followed by substrate addition by malachite green based assay
[2] = Binding affinity to calcium saturated His-tagged cNTnC (1 to 90 residues)- cTnI (136 to 163 residues) A-Cys chimeric protein harboring C35S/C84S double mutant (unknown origin) assessed as dissociation constant by flourescence spectroscopy analysis; parameters: species or system Homo sapiens
[3] = Aqueous solubility of the compound by fluorescence spectroscopy analysis; assay type: physicochemical
Homo sapiens [4] = species on record: Homo sapiens; assay: Binding affinity to BME-bound [15N]-labelled cNTnC (1 to 90 residues)- cTnI (136 to 163 residues) C35S mutant chimeric protein (unknown origin) expressed in Escherichia coli BL21 (DE3) up to 60 uM in the presence of DTT by 2D 1H, 15N HSQC NMR spectroscopy analysis; settings: dose microM <=60
[5] = Aqueous solubility of the compound by 1D H-NMR spectroscopy analysis; assay type: physicochemical
[6] = Drug degradation assessed as new spectra with MW of 202 Da formation at 40 uM measured after incubation of 8-month old compound with [15N]-labelled cNTnC (1 to 90 residues)-cTnI (136 to 163 residues) C35S mutant chimeric protein (unknown origin) by 2D 1H, 15N HSQC NMR spectroscopy analysis; assay type: ADME
[7] = Stability of the compound in NMR buffer at 50 uM in the absence of DTT measured after 40 hrs at 30 degC by 1D H-NMR analysis; assay type: physicochemical
Homo sapiens [8] = species on record: Homo sapiens; assay: Binding affinity to BME-bound [15N]-labelled cNTnC (1 to 90 residues)- cTnI (136 to 163 residues) C35S mutant chimeric protein (unknown origin) expressed in Escherichia coli BL21 (DE3) up to 60 uM by 2D 1H, 15N HSQC NMR spectroscopy analysis; settings: dose microM <=60
Bos taurus [9] = species on record: Bos taurus; assay: Inhibition of actomyosin ATPase activity in bovine cardiac myofibrils assessed as reduction in inorganic phosphate release using ATP as substrate preincubated for 30 mins in presence of pCa 6 followed by substrate addition by malachite green based assay
[10] = Reactivity with dithiothreitol in NMR buffer at 50 uM measured up to 24 hrs by 1D H-NMR analysis; settings: time hrs <=24
[11] = Binding affinity to calcium saturated His tagged cNTnC (1 to 90 residues)- cTnI (136 to 163 residues) C35S mutant chimeric protein (unknown origin) assessed as dissociation constant by flourescence spectroscopy analysis; parameters: species or system Homo sapiens
[12] = Covalent binding affinity to [15N]-labelled cNTnC (1 to 90 residues)- cTnI (136 to 163 residues) C35S mutant chimeric protein (unknown origin) expressed in Escherichia coli BL21 (DE3) assessed as dissociation constant by 2D 1H, 15N HSQC NMR spectroscopy analysis; parameters: species or system Homo sapiens
Homo sapiens [13] = species on record: Homo sapiens; assay: Binding affinity to [15N]-labelled cNTnC (1 to 90 residues)- cTnI (136 to 163 residues) A-Cys chimeric protein harboring C35S/C84S double mutant (unknown origin) assessed as NMR fast exchange by 2D 1H, 15N HSQC NMR spectroscopy analysis
[14] = Drug degradation assessed as new spectra with MW of 404 Da formation at 40 uM measured after incubation of 8-month old compound with [15N]-labelled cNTnC (1 to 90 residues)-cTnI (136 to 163 residues) C35S mutant chimeric protein (unknown origin) by 2D 1H, 15N HSQC NMR spectroscopy analysis; assay type: ADME
[15] = Inhibition of actomyosin ATPase activity in bovine cardiac myofibrils assessed as reduction in inorganic phosphate release using ATP as substrate preincubated for 30 mins in presence of pCa 4.5 followed by substrate addition by malachite green based assay; parameters: species or system Bos taurus

inhibition (Bos taurus [1]): inactive
Kd [2]: 45 nM
solubility [3]: < 50 µM
Activity (Homo sapiens [4]): Active
solubility [5]: < 50 µM
Drug degradation [6]: Active
Stability [7]: Stable
Activity (Homo sapiens [8]): inactive
inhibition (Bos taurus [9]): Active
Activity [10]: Active
Kd [11]: 56 nM
Activity (Homo sapiens [13]): inactive
Drug degradation [14]: Active
IC50 [15]: 11 nM
SMILES: N#C/C(=C\c1ccc(N(c2ccccc2)c2ccccc2)cc1)C(=O)O
Kd [12]: < 500 nM
